In PubChem BioAssay AID2305 (GlaxoSmithKline (GSK), 2010):

Tested on: P. falciparum 3D7 growth, pLDH absorbance
Experiment: P. falciparum 3D7 growth inhibition, dose response, strain 3D7 (AID 2305)

Structure (SMILES) | IC50 [nM]
CC1(C)N=C(N)N=C(N)N1c1cccc(C(F)(F)F)c1 | 10
Fc1cccc(C=NNc2ccnc3ccccc23)c1 | 840
O=C1C(c2ccccc2)=C(Nc2cccc(OC(F)(F)C(F)F)c2)c2ccccc21 | 180
CCCC(CNCc1cccc(C)c1)CNc1cc(=O)c2ccccc2[nH]1 (configuration not stated) | 630
O=C(NCCN1CCCC1)c1cccc(-c2ccc(-c3nc4ccc(F)cc4[nH]3)s2)c1 | 1530
CN(CCc1ccccn1)Cc1ccc(-c2ccc(-c3nc4ccccc4[nH]3)s2)cc1 | 590
Cc1cc(C2CCN(CCCCNC(=O)c3ccc(-c4ccc(C(F)(F)F)cc4)cc3)CC2)c(C)cc1OCC(N)=O | 800
Nc1c(Cl)cc(C(O)CNCCCCCCOCCC=C2CCOCC2)cc1Cl (configuration not stated) | 630
CC(C)N1CCN(C(=O)c2ccc(CNCCCN3CCN(c4cccc(Cl)c4Cl)CC3)s2)CC1 | 720
O=C(Nc1ccc(-c2csc(-c3nc4ccccc4[nH]3)c2)cc1)Nc1ccsc1 | 550
CCN(CCCN1CCCCC1)c1cc(C)nc(Nc2ccc(OC)cc2)n1 | 620
O=C(Cc1ccc(NC(=O)c2ccc(O)c(-c3ccc(Cl)c(Cl)c3)c2)cc1)NCc1cccc(C(F)(F)F)c1 | 880
Cc1ccc(O)cc1Nc1ccnc2cc(-c3csc(CNCCN4CCOCC4)n3)ccc12 | 880
CN1CCN(CCCN(Cc2ccc(-c3ccc(CNC4CCCC4)cc3)cc2)C(=O)CCC2CCCC2)CC1 | 890
Cc1nccc2c(NC(=O)N[C@@H]3CCN(c4ncc(C(F)(F)F)cc4Br)C3)cccc12 | 360
COc1ccc(-c2ccc(NC(=O)c3ccc(Cl)cc3)cc2)cc1CN(C)CCN(C)C | 670
CCc1c(C)nc(-n2nc(C)cc2NC(=O)C(CC)c2ccccc2)[nH]c1=O (configuration not stated) | 710
Oc1ccc(CCNc2nc(NCc3ccccc3Oc3ccc(C(F)(F)F)cc3)nc(N3CCNCC3)n2)cc1 | 1160
O=C(Nc1ccc2c(c1)CCCN2S(=O)(=O)c1cccs1)c1cc([N+](=O)[O-])ccc1Cl | 840
CCCOc1ccccc1C(=O)Nc1nonc1-c1ccc(OCC)c(OCC)c1 | 710
CC(C)CCNCc1c(O)ccc2ccccc12 | 1670
Cc1nc(-c2nc(N3CCC(O)CC3)ncc2-c2ccsc2)sc1C | 940
CC(=O)Nc1ccc(OCCCCN(Cc2ccccc2OC(F)(F)F)c2ccc(C(F)(F)F)c(C#N)c2)c(Cl)c1 | 530
Cc1ccc(C)c2sc(N3CCN(C(=O)c4ccc([N+](=O)[O-])o4)CC3)nc12 | 820
COc1cccc(C(=O)Nc2ccc(S(=O)(=O)c3cc4c(cc3OC)CCN(C)CC4)cc2)c1 | 1100

Structure (SMILES) | IC50 [nM]
CCCCCN1C(=O)N(c2ccc(Cl)c(Cl)c2)C(N(O)C(=O)Nc2ccc(Cl)c(Cl)c2)C1(C)C (configuration not stated) | 550
O=C(/C=C/c1ccc(Cl)c(Cl)c1)NCCC1CCC(N2CCC(c3c[nH]c4ccccc34)CC2)CC1 (configuration not stated) | 200
Cc1ccc(C(C)C)c(Oc2ccc3nc(N)nc(N)c3c2)c1 | 10
Cc1cccc2[nH]c(-c3cccc(-c4cccc(NC(=O)c5cnccc5C(F)(F)F)c4)c3)nc12 | 660
O=C(Nc1ccc(Cl)cc1)Nc1ccc2c(c1)N1CCN=C1S2 | 590
CCCCCCCCc1c(C)[nH]c(C)c(Br)c1=O | 820
Cn1c(NC2CCN(CC3CCN(C(=O)/C=C/c4ccc(Cl)c(Cl)c4)CC3)CC2)nc2ccccc21 | 150
CCCCNC[C@@H](O)[C@H](Cc1ccccc1)NC(=O)c1cc2c3c(c1)c(CC)cn3CCS(=O)(=O)N2C | 200
CCOc1ccc(C(=O)Nc2cc(Br)c3c(c2)CNCC3)cc1Br | 990
O=C(CCc1cnc[nH]1)Nc1cccc(-c2ccc(-c3nc4ccccc4[nH]3)cc2)c1 | 650
O=C(Nc1cc(C(F)(F)F)cc(C(F)(F)F)c1)N1CCC(CCN2CCC(c3c[nH]c4ccccc34)CC2)CC1 | 1260
CC(=O)Nc1nc(C(=O)Nc2cccc(-c3cccc(-c4nc5ccccc5[nH]4)c3)c2)cs1 | 170
O=C(Nc1ccc(Br)cc1)c1cc(Br)ccc1NS(=O)(=O)c1cc(C(F)(F)F)cc(C(F)(F)F)c1 | 880
CCN(C(=O)NC)[C@@H]1c2cc(C#N)ccc2OC(C)(C)[C@H]1O | 300
CC(Nc1ccnc2cc(Cl)ccc12)c1ccc(S(N)(=O)=O)cc1 (configuration not stated) | 930
O=C(Nc1cccc(CN2CCN(C(=O)c3cccc(F)c3)CC2)c1)c1cccs1 | 370
CC(C)(C)c1ccc(CNCC(C)(C)c2nc(-c3ccc(Cl)c(O)c3)c(-c3ccnc(N)n3)[nH]2)cc1 | 700
COc1ccc(NC(=O)CCNc2cc(C)nc(NCCOc3ccccc3)n2)cc1 | 750
CCc1ccc(CN2CCC(CNC(=O)c3cc(-c4cccc(F)c4)cs3)C2)cc1 (configuration not stated) | 1360
CCCCOc1ccccc1C(=O)NCc1csc(-c2ccccc2)n1 | 560
NC(N)=NN=Cc1cc2ccccc2c2ccccc12 | 180
CC(Cc1ccc(CNC(=O)c2ccc(CC(C)NCCc3cccc(Cl)c3)cc2)cc1)NCCc1cccc(Cl)c1 (configuration not stated) | 700
COc1ccc(Nc2nc(NC3CCCC3)cc(-c3ccc(OC)cc3)n2)cc1 | 1030
OCCCCCCNc1nc(NCc2ccccc2-c2ccc(C(F)(F)F)cc2)nc(N2CCNCC2)n1 | 1440
O=C(c1ccccc1)[C@H]1C[C@@H]1CN1CC=C(c2c[nH]c3ccccc23)CC1 | 530

Structure (SMILES) | IC50 [nM]
Cc1ccc(/C=C/C(=O)N2CCC(CCN3CCC(c4c[nH]c5ccccc45)CC3)CC2)cc1C | 930
COc1cc2nc(N3CCC(CNC(=O)c4ccc(NC(=O)c5ccc(Cl)cc5)cc4)CC3)nc(N)c2cc1OC | 260
O=C(Nc1ccccc1F)N(CCCn1ccnc1)Cc1csc(-c2ccc(CNCc3ccccc3)cc2)n1 | 840
COc1ccc(S(=O)(=O)NCC2CCCN(CCCCCNC(=O)/C=C/c3ccc(Cl)c(Cl)c3)C2)cc1 (configuration not stated) | 1060
Cn1c(-c2ccccc2)cc2c3c(N)nc(N)nc3ccc21 | 890
Cc1ccc(F)c(OCC2CCN(c3ccc(C(=O)NC4CC4)cn3)CC2)c1 | 730
CCc1cn(C)c2c(N3CCCC3=O)cc(C(=O)N[C@@H](Cc3ccccc3)[C@H](O)CNC(C)(C)CCCC(C)C)cc12 | 490
O=C(Nc1ccc(Cl)cc1)Nc1cccc(-c2ccc(-c3nc4ccccc4[nH]3)cc2)c1 | 930
CCNC(=O)Nc1ccc(N(C)c2ccnc(NC3CC3)n2)cc1 | 800
COc1ccc2ncc(F)c(CCN3CCC(NCc4cc(Br)c5c(c4)OCCO5)CC3)c2n1 | 190
O=C(NC1CCN(c2ccnc3cc(Cl)ccc23)C1)c1ccc(C(F)(F)F)cc1 (configuration not stated) | 140
COc1cc(C)nc2ccc(NC(=O)COCC(=O)Nc3ccc4nc(C)cc(OC)c4c3)cc12 | 920
FC(F)(F)c1cccc(CNCC2CCN(Cc3ccc4c(c3)OCO4)CC2)c1 | 730
O=C(Nc1ccnc(-c2cccnc2)n1)c1cc(C(F)(F)F)cc(C(F)(F)F)c1 | 820
O=c1c(NCCCN(Cc2ccc(F)cc2)c2ccccn2)c(NCc2ccncc2)c1=O | 150
CCCCOC(=O)[C@H](CCC)NC(=O)c1ccc(NS(=O)(=O)c2ccc3nc(N)[nH]c(=O)c3c2)cc1 | 200
O=C(Nc1ccc(Cl)c(Cl)c1)Nc1ccc2c(c1)CCNCC2 | 530
COc1cccc(CNC(=O)[C@@H]2CN(C(=O)c3ccccc3)CCN2)c1 | 1160
CC(C)CNCc1cccc(-c2cccc(CNC3CCN(Cc4ccccc4)CC3)c2)c1 | 180
O=C(Nc1cccc(-c2nn3ccccc3c2-c2ccnc(Nc3cccc(-c4cnco4)c3)n2)c1)C1CCCCC1 | 260
C[C@@H](NCCc1cccc(Cl)c1)[C@@H](O)c1ccc(OCCCCCCOc2ccc([C@H](O)[C@@H](C)NCCc3cccc(Cl)c3)cc2)cc1 | 400
CC(CN(C)C)C(=O)Nc1ccc(-c2cccc(-c3nc4ccc(C(F)(F)F)cc4[nH]3)c2)cc1 (configuration not stated) | 210
O=C(/C=C/c1ccc(Cl)c(Cl)c1)NCCCCCN1CCCC(CCCNC(=O)Nc2ccc(C(F)(F)F)cc2)C1 (configuration not stated) | 530
CCN(CC)CC(O)Cc1c2ccc([N+](=O)[O-])cc2nc2cc(OC)c(OC)cc12 (configuration not stated) | 740
CN(C)CCCOc1ccc(-c2nc(-c3ccc4c(c3)CCC4=NO)c(-c3ccncc3)[nH]2)cc1 | 830

Structure (SMILES) | IC50 [nM]
Cn1nccc1C(=O)NCCNCc1ccc(-c2cccc(-c3nc4ccccc4[nH]3)c2)cc1 | 140
COc1ccc2nccc(NN=Cc3ccncc3)c2c1 | 580
COc1ccc2nccc(NN=Cc3cccc(Cl)c3)c2c1 | 190
Cc1cc2c(cc1C(F)(F)F)N(C(=O)Nc1cc(C(=O)NCCN(C)C)cc(C(F)(F)F)c1)CC2 | 730
COc1cccc(C(=O)Nc2nonc2-c2ccc(OC)c(OC)c2)c1 | 800
OCCOCCNCc1cccc(C#Cc2cc3ncnc(Nc4ccc(OCc5cccc(F)c5)c(Cl)c4)c3s2)n1 | 780
CCc1c[nH]c2c(N(c3ccccc3)S(C)(=O)=O)cc(C(=O)N[C@@H](Cc3ccccc3)[C@H](O)CNCc3cccc(C(F)(F)F)c3)cc12 | 1000
O=C(Nc1cccc(CN2CCCN(CC3CC3)CC2)c1)c1ccc(Cl)c(Cl)c1 | 1030
COc1cc2c(cc1OCCN1CCC(N)CC1)N(C(=O)/C=C/c1ccccc1Cl)CC2 | 1120
COc1ccc(NC(=O)Nc2ccc(-c3ccc(-c4nc5c(C)cccc5[nH]4)s3)cc2)cc1 | 180
O=S(=O)(NC1CCCCN(Cc2ccccc2O)C1)c1ccc(C(F)(F)F)cc1 (configuration not stated) | 1300
COc1ccc(-c2ccc(NC(=O)c3cccc(C#N)c3)cc2)cc1CN1CCCC(C(N)=O)C1 (configuration not stated) | 860
COc1c(C2=CCN(CCCCNC(=O)c3ccc(-c4ccc(C#N)cc4)cc3)CC2)c(C)cc2c1C(C)(C)CCC2(C)C | 950
O=C(NCCN1CCN(S(=O)(=O)c2ccc(OC3CCNCC3)c(Br)c2)CC1)c1ccc(Cl)c(Cl)c1 | 890
COc1cc2cc(C(=O)Nc3ccccc3)c(N)nc2cc1OC | 1130
N#Cc1ccc(N2CCN(Cc3ccc(-c4ccc(-c5nc6ccc(F)cc6[nH]5)s4)cc3)CC2)nc1 | 850
Cc1cccc2[nH]c(-c3ccc(-c4cccc(NC(=O)CCc5cnc[nH]5)c4)cc3)nc12 | 410
NCC1CCCN1Cc1ccc(-c2cccc(-c3nc4ccc(F)cc4[nH]3)c2)cc1 (configuration not stated) | 750
CCCOc1ccc2ccccc2c1CNCCCCCCNCc1c(OCCC)ccc2ccccc12 | 790
N#Cc1ccccc1S(=O)(=O)N1CCCC(CNC(=O)[C@H](CC2CCCCC2)NC(=O)c2cc3ccccc3s2)C1 (some centres not stated) | 510
Cc1ccccc1C1CCN(C2CCC(NC(=O)C3=Cc4ccccc4OC3)CC2)CC1 (configuration not stated) | 930
Cc1[nH]c2ccccc2c(=O)c1[N+](=O)[O-] | 1110
